Laboratory results: patent US9115137B2, “2,3,4,5-tetrahydro-1H-pyrido[4,3-B]indole compounds and methods of use thereof” (priority 2008, dated 2015)

Columns and labels:
[1] = target: T1, human recombinant serotonin (5-Hydroxytryptamine) 5-HT2C receptor (Homo sapiens, UniProt P28335); test: Serotonin 5-HT2C radioligand binding ([3H]Mesulergine); conditions: compound at 1 μM; CHO-K1 cells; read-out: Serotonin (1 μM) 5-HT2C, percent inhibition of specific binding
T1 construct: expressed in transfected cells; host or cells: CHO-K1 cells
T1 sequence (P28335 33-458): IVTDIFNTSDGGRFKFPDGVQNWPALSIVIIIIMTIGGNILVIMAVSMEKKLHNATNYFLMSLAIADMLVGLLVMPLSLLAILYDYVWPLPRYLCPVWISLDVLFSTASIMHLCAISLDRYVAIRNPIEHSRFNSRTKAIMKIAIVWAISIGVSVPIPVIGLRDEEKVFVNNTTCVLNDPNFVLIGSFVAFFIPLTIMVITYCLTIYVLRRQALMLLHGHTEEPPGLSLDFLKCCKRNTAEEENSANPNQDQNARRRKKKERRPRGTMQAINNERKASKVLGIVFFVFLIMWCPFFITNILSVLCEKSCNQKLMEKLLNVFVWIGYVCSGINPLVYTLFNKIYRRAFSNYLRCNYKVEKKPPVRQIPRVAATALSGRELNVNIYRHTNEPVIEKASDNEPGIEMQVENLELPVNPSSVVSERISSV
Summary of the method: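 Membranes from CHO-K1 cells expressing the human receptor were incubated 60 min at 25 °C with 1 nM [3H]mesulergine in 50 mM Tris-HCl pH 7.4 with ascorbic acid and pargyline; 1 μM mianserin defined non-specific binding.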

[2] = target: T2, human recombinant adrenergic α2A receptor (Homo sapiens, UniProt P08913); test: Adrenergic α2A radioligand binding ([3H]MK-912); conditions: compound at 1 μM; insect Sf9 cells; read-out: Adrenergic (1 μM) α2A, percent inhibition of specific binding
T2 construct: expressed in transfected cells; host or cells: insect Sf9 cells
T2 sequence (P08913 1-465): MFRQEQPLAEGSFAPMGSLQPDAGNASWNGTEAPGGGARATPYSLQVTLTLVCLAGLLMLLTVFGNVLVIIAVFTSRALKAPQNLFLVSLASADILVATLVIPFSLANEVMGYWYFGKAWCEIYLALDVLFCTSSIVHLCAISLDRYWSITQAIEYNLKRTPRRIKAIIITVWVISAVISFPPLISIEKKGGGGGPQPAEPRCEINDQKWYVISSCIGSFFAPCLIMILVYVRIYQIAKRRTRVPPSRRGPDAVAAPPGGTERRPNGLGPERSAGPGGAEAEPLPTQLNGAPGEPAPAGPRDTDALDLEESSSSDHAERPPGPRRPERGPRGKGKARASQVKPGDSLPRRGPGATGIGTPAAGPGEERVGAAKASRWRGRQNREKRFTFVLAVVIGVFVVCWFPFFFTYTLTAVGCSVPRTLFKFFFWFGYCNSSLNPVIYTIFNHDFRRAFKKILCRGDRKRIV
Summary of the method: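 Membranes from Sf9 cells expressing the receptor were incubated with 1 nM [3H]MK-912 for 60 min at 25 °C in Tris-HCl pH 7.4 with MgCl2 and EDTA. Nonspecific binding defined by 10 μM WB-4101; compounds tested at ≤1 μM (1% DMSO), reported as percent inhibition of specific binding.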

[3] = target: T3, human recombinant adrenergic α2B receptor (Homo sapiens, UniProt P18089); test: Adrenergic α2B radioligand binding ([3H]Rauwolscine); conditions: compound at 1 μM; CHO-K1 cells; read-out: Adrenergic (1 μM) α2B, percent inhibition of specific binding
T3 construct: expressed in transfected cells; host or cells: CHO-K1 cells
T3 sequence (P18089 1-450): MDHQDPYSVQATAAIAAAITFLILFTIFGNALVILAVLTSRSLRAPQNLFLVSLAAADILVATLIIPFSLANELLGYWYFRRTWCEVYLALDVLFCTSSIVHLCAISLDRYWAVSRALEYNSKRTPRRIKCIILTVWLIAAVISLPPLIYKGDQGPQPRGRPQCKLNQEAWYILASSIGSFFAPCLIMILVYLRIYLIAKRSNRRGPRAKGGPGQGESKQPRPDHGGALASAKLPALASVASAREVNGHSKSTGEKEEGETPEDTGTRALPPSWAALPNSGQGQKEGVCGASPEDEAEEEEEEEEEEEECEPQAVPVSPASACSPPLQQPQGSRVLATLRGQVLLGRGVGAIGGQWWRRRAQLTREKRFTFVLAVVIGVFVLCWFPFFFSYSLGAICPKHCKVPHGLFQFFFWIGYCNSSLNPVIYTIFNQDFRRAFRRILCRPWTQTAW
Summary of the method: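 CHO-K1 membranes expressing the receptor were incubated with test compounds (1 μM or lower, 1% DMSO) and 2.5 nM [3H]Rauwolscine for 60 min at 25° C in Tris-HCl pH 7.4 with MgCl2, EDTA and BSA. Bound radioactivity was filtered and counted; nonspecific binding was defined with 10 μM Prazosin, giving percent inhibition of specific binding.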

Compound: Cc1ccc2c(c1)c1c(n2CCNC(=O)c2ccc(F)cc2)CCN(C)C1 [Compound 66, 4-fluoro-N-(2-(1,2,3,4-tetrahydro-2,8-dimethylpyrido[4,3-b]indol-5-yl)ethyl)benzamide]
- inhibition at 1 µM [1]: 93%
- inhibition at 1 µM [2]: 70%
- inhibition at 1 µM [3]: 107%

Compound: CN1CCc2c(c3cc(Cl)ccc3n2CCC(N)=O)C1 [Compound 67, 3-(8-chloro-1,2,3,4-tetrahydro-2-methylpyrido[4,3-b]indol-5-yl)propanamide]
- inhibition at 1 µM [1]: 65%
- inhibition at 1 µM [2]: 79%
- inhibition at 1 µM [3]: 72%

Compound: Cc1ccc2c(c1)c1c(n2CCNC(=O)C2CCCC2)CCN(C)C1 [Compound 68, N-(2-(1,2,3,4-tetrahydro-2,8-dimethylpyrido[4,3-b]indol-5-yl)ethyl)cyclopentanecarboxamide]
- inhibition at 1 µM [1]: 40%
- inhibition at 1 µM [2]: 62%
- inhibition at 1 µM [3]: 84%

Compound: Cc1ccc2c(c1)c1c(n2CCNC(=O)c2ccncc2C)CCN(C)C1 [Compound 69, N-(2-(1,2,3,4-tetrahydro-2,8-dimethylpyrido[4,3-b]indol-5-yl)ethyl)-3-methylpyridine-4-carboxamide]
- inhibition at 1 µM [1]: 24%
- inhibition at 1 µM [2]: 25%
- inhibition at 1 µM [3]: 39%

Compound: Cc1ccc2c(c1)c1c(n2C2CCCCC2O)CCN(C)C1 (stereo not drawn) [Compound 73, 2-(1,2,3,4-tetrahydro-2,8-dimethylpyrido[4,3-b]indol-5-yl)cyclohexanol]
- inhibition at 1 µM [1]: 52%
- inhibition at 1 µM [2]: 11%
- inhibition at 1 µM [3]: -2%
